Patent publication US12102672B2, “Immunogenic sequences from a phage tail length tape measure protein, bacteria expressing the same and their use in treating a cancer” (INSTITUT GUSTAVE ROUSSY, priority 2017, dated 2024)
Entries after “also recorded” stand apart in the source; their conditions may differ.

Key:
CD8+ and CD4+ T cells = experiment: Flow cytometry of T cells in mLN, spleen and tumor after oral gavage with E. hirae and CTX; format: in vivo, mice; conditions: for accumulation of CD8+ T cells in mLN and spleen: mLN after 1 week, spleen after 2 weeks
Experimental: FIG. 7. […] (A) Experimental setting. […] One day post-CTX, a second oral gavage with E. hirae is performed. 72 hours post-CTX, CD4+ and CD8+ T cells are isolated from mesenteric lymph node (mLN). Percentage of CD8+(B) and CD4+(C) T cells in mLN after oral gavage with E. hirae 708 or 13144 and CTX treatment. (D) Experimental setting. […] 5 days after the first oral gavage, mice are treated with CTX. One week post-CTX, CD8+ T cells are isolated from spleen. Percentage of CD8+ T cells (E) and CCR9+CXCR3+CD8 T cells (F) in spleen after oral gavage with E. hirae 708 or 13144 and CTX treatment.

MCA205 sarcoma = conditions: cited from earlier work; for anti-tumor immune response: FIG. 1D of Daillère et al., 2016
MCA-205 sarcoma = experiment: MCA205 sarcoma growth in antibiotic-treated SPF C57BL/6 mice, CTX plus oral gavage with bacteria; format: in vivo; conditions: ATB 3 days, CTX 100 mg/kg x3, weekly oral gavages, FIG. 27B
Experimental: (§1) A and C. Experimental setting. […] D-E. Ex vivo recall assays. […] Each dot represents one mouse.
A-B. Prophylactic vaccinations. […] C-D. Therapeutic settings.
Mice were treated during 3 days with an antibiotic solution (ATB) containing ampicillin (1 mg/ml), streptomycin (5 mg/ml), colistin (1 mg/ml) (Sigma-Aldrich) and vancomycin (0.25 mg/ml) added in the sterile drinking water of mice. Antibiotic activity was confirmed by cultivating fecal pellets resuspended in BHI+15% glycerol at 0.1 g/ml on COS (BD Columbia Agar with 5% Sheep Blood) plates for 48 h at 37° C. in aerobic and anaerobic conditions. In the context of bacterial transplantation experiments, mice received 3 days of ATB before undergoing bacterial transplantation the next day by oral gavage using animal feeding needles.
Syngeneic C57BL/6 mice were implanted with 0.8×10^6 MCA-205 WT sarcoma cells subcutaneously and treated intraperitoneally (i.p.) when tumors reached 20 to 35 mm^2 in size with CTX (100 mg/kg). Depending on the experimental setting, mice were injected once or 3 times at 1-week interval. Tumor size was routinely monitored every 3 days by means of a caliper.
Enterococcus hirae 13144 were originally isolated from spleens of SPF mice treated with CTX in our laboratory.

splenic CD8+ T cells = experiment: IFNγ ELISpot recall assay of splenic CD8+ T cells with DCs pulsed with heat-inactivated bacteria or peptides; format: cell-based, mice; conditions: for memory Tc1 immune response (IFNγ spots) to BM-DC infected with EH isolates: Example 2, FIG. 10, splenic CD8+ T cells after gavage + CTX, ELISPOT at 24 hrs; for specific TC1 immune responses after restimulation with E. hirae strains loaded onto DC: Example 12, FIG. 27D, prime-boost exposure + CTX
Experimental: FIG. 9. Experimental immunization protocols to elucidate the immunogenicity of EH peptides. […] 5 days after the first oral gavage, mice are treated with CTX. One week post-CTX, CD8+ T cells are isolated from spleen. These CD8+ T cells are incubated with dendritic cells (DCs) pulsed with 20 μg/ml of peptides (during 1 hour) or with heat-inactivated bacteria (during 6 hours). Inactivation of bacteria consists in incubation at 65° C. during 2 hours. After 24 hours of culture, ELIspot of IFNγ is performed.
FIG. 10. Cross-reactivity between the two E. hirae 708 and 13144 species for CTL splenic reactivity. Number of IFNγ spot representing IFNγ-secreting CD8+ T cells after co-culture with DCs pre-incubated with or without heat-inactivated bacteria (708, 13144, EH17 and L. plantarum).
FIG. 13. Peptides from group 7 containing the TMP1 and TMP2 epitopes activate CD8+ T cells from spleen of mice immunized against E. hirae 13144. Number of IFNγ spot, representing IFNγ-secreting CD8+ T cells, after incubation with DCs pulsed with 13 different group of peptide (Table 6). Just group n° 1 (A) and group n° 7 (B) are shown. (C, E) Number of IFNγ spot, representing IFNγ-secreting CD8+ T cells, after incubation with DCs pulsed with 4 peptides belong to group n° 7 (in table 7). (D) Sequence alignment of TMP1 and TMP2 of EH10815 (SEQ ID Nos: 228 and 229 respectively) compared to EH13144 (fragments of SEQ ID NO: 1) at the level of immunogenic peptides. Amino acid sequence […] corresponds to SEQ ID No: 13. Amino acid sequence […] corresponds to SEQ ID No: 217. Amino acid sequence […] corresponds to SEQ ID Nos: 14. Amino acid sequence AlIEFIKGL corresponds to SEQ ID No: 218. (E) In vitro reactivity of splenic CTL in a recall response to TMP1 and TMP2 as well as Group7 after in vivo immunization with other strains of EH.
as §1

Substance	accumulation of CD8+ T cells in mLN and spleen (CD8+ and CD4+ T cells)	anti-tumor immune response (MCA205 sarcoma)	restoration of antibiotic-perturbed anticancer effects of CTX (MCA205 growth) (MCA-205 sarcoma)	memory Tc1 immune response (IFNγ spots) to BM-DC infected with EH isolates (splenic CD8+ T cells)	specific TC1 immune responses after restimulation with E. hirae strains loaded onto DC (splenic CD8+ T cells)	TC1 response against TMP1 in mice gavaged with the strain (IFNγ ELISpot) (splenic CD8+ T cells; Example 12, FIG. 27E)	CD4+ T cell pool in the mLN (CD8+ and CD4+ T cells; 72 hours post-CTX)	accumulation of CD8+CCR9+CXCR3+ T cells in spleen and tumor beds (CD8+ and CD4+ T cells; listed as EH13144)	accumulation of CD8+ T cells in mLN and spleen (CD8+ and CD4+ T cells; listed as E. hirae 13144)	accumulation of CD8+ T cells in mLN and spleen (CD8+ and CD4+ T cells; listed as EH13144)	restoration of CTX-mediated antitumor effects (MCA205 sarcoma; 14 day-ATBs, oral gavage)
Enterococcus hirae 708 [Peptide 708, reference compound]	capable of inducing the accumulation of CD8+ T cells	fails to do so	reduced anticancer effect	could induce memory Tc1 immune responses	failed to do so	unable to do so					
Enterococcus hirae strain 13144 [Peptide 13144]		induces an efficient anti-tumor immune response	efficient	could induce memory Tc1 immune responses	triggered specific TC1 immune responses		amplified	induce accumulation; also recorded: Sustained accumulation	Increased accumulation	capable of inducing the accumulation of CD8+ T cells	selectively restored the CTX-mediated antitumor effects
